Like-named read-outs stand apart in the source and are kept apart here.
Assays:
HeLa cells [1] = experiment: Cell uptake by confocal microscopy; format: cell-based, human; details: 15 μM, 2 h incubation; for Cellular uptake: λexc 450 nm
Procedure: HeLa cells were seeded onto Ibidi μ-slides at 10^4 cells/cm^2 in a complete medium and incubated for 24 h at 310 K and 5% CO2 in a humidified incubator. Compounds were added at indicated concentrations for 2 h. […]

CHO cells = experiment: Dark cytotoxic screening, MTT test, 48 h; format: cell-based; details: 48 h in the dark
Procedure: (§1) For dark cytotoxic screening, A2780, CHO, HeLa, and A375 cells were cultured in 96-well plates at a density of 5 × 10^3 cells/well in complete medium and incubated for 24 h at 310 K and 5% CO2 in a humidified incubator. Serial dilutions of tested compounds in cell culture media were then added at final concentrations in the range of 0 to 100 μM in a final volume of 100 μL/well (%v/v DMSO below 0.4%) for 48 h prior to MTT test. For photoactivation studies, HeLa and A375 cells were used. Treatments were added at final concentrations in the range of 0 to 500 μM. After 1 h incubation with the compounds, light irradiation treatments were applied using a LED photoreactor (Luzchem; Canada) fitted with LED lamps centered at 465 nm (final intensity 4 mW/cm^2) for 1 h. Dark control analogues were directly kept in the dark for 2 h. After incubation periods, cells were washed with saline PBS buffer and loaded with 50 μL of MTT solution (1 mg/mL) for additional 4 h, then removed and 50 μL DMSO was added to solubilize the purple formazan crystals formed in active cells. The absorbance was measured at 570 nm using a microplate reader (FLUOstar Omega) and the IC50 values were calculated based on the inhibitory rate curves using the next the equation [drawing 2] where I represents the percentage inhibition of viability observed, Imax is the maximal inhibitory effect, IC50 is the concentration that inhibits 50% of maximal growth, C is the concentration of the treatment, and n is the slope of the semilogarithmic dose–response sigmoidal curves. The nonlinear fitting was performed using SigmaPlot 14.0 software. Two independent experiments were performed with triplicate points per concentration level (n = 3).

A375 cells [2] = experiment: Photoactivation studies (phototoxicity, MTT), dark vs blue light; format: cell-based, human
Procedure: as §1

HeLa cells [3] = experiment: as above; format: cell-based, human
Procedure: as §1

A375 cells [4] = experiment: Dark cytotoxic screening, MTT test, 48 h; format: cell-based, human; details: 48 h in the dark
Procedure: as §1

HeLa cells [5] = experiment: Dark cytotoxic screening, MTT test, 48 h; format: cell-based, human; details: 48 h in the dark
Procedure: as §1

A2780 cells = experiment: Dark cytotoxic screening, MTT test, 48 h; format: cell-based, human; details: 48 h in the dark
Procedure: as §1

HeLa cells [6] = experiment: Confocal microscopy imaging after blue light irradiation; format: cell-based, human; details: 15 μM
Procedure: HeLa cells were seeded onto Ibidi μ-slides at 10^4 cells/cm^2 in a complete medium and incubated for 24 h at 310 K and 5% CO2 in a humidified incubator. […] Cells were then washed with PBS twice and imaged under confocal microscopy (STELLARIS Leica Microsystems) using 405 nm excitation laser.

HeLa cells [7] = system: HeLa cells; parameters: method as in doi:10.1016/j.dyepig.2022.110905; details: λexc 405 nm; cited from earlier work
[8] = hypoxia (2% O2), 1 h incubation then blue light 465 nm, 4 mW/cm^2, 1 h, read-out: IC50 A375 blue light
[9] = hypoxia (2% O2), dark, read-out: IC50 A375 dark
[10] = normoxia (21% O2), 1 h incubation then blue light 465 nm, 4 mW/cm^2, 1 h, read-out: IC50 A375 blue light
[11] = normoxia (21% O2), dark 2 h, read-out: IC50 A375 dark
[12] = hypoxia (2% O2), 1 h incubation then blue light 465 nm, 4 mW/cm^2, 1 h, read-out: IC50 HeLa blue light
[13] = hypoxia (2% O2), dark, read-out: IC50 HeLa dark
[14] = normoxia (21% O2), 1 h incubation then blue light 465 nm, 4 mW/cm^2, 1 h, read-out: IC50 HeLa blue light
[15] = normoxia (21% O2), dark 2 h, read-out: IC50 HeLa dark

Compound: O=S(=O)([O-])C(F)(F)F.O=S(=O)([O-])C(F)(F)F.O=[N+]([O-])c1ccc(-n2cc(-c3nc4ccccc4s3)nn2)cc1.[Ru+2].c1cnc2c(c1)ccc1cccnc12.c1cnc2c(c1)ccc1cccnc12 [Ru4, [Ru(phen)2(L4)][OTf]2]
- Intracellular distribution (HeLa cells [1]): across the cytoplasm in punctate deposits
- Cellular uptake (HeLa cells [1]): excellent and rapid cellular uptake
- IC50 (CHO cells): > 100 µM
- P.I. A375 (IC50 dark/IC50 465 nm) (A375 cells [2]; hypoxia (2% O2)): >9.6
- IC50 (A375 cells [2]; [8]): 51.9 ± 2.4 µM
- IC50 (A375 cells [2]; [9]): > 500 µM
- P.I. A375 (IC50 dark/IC50 465 nm) (A375 cells [2]; normoxia): >26.6
- IC50 (A375 cells [2]; [10]): 18.8 ± 3.7 µM
- IC50 (A375 cells [2]; [11]): > 500 µM
- P.I. HeLa (IC50 dark/IC50 465 nm) (HeLa cells [3]; hypoxia (2% O2)): >12.0
- IC50 (HeLa cells [3]; [12]): 41.7 ± 2.7 µM
- IC50 (HeLa cells [3]; [13]): > 500 µM
- P.I. HeLa (IC50 dark/IC50 465 nm) (HeLa cells [3]; normoxia): >14.8
- IC50 (HeLa cells [3]; [14]): 33.8 ± 5.5 µM
- IC50 (HeLa cells [3]; [15]): > 500 µM
- IC50 (A375 cells [4]): > 100 µM
- IC50 (HeLa cells [5]): > 100 µM
- IC50 (A2780 cells): > 100 µM

Compound: [NH2][Pt]([NH2])([Cl])[Cl] [CDDP, cisplatin, reference compound]
- IC50 (CHO cells): 7.8 ± 0.4 µM
- IC50 (HeLa cells [5]): 21 ± 2 µM
- IC50 (A2780 cells): 1.9 ± 0.1 µM

Compound: CN(C)c1ccc(-n2cc(-c3nc4ccccc4s3)nn2)cc1.O=S(=O)([O-])C(F)(F)F.O=S(=O)([O-])C(F)(F)F.[Ru+2].c1cnc2c(c1)ccc1cccnc12.c1cnc2c(c1)ccc1cccnc12 [Ru5, [Ru(phen)2(L5)][OTf]2]
- Intracellular distribution (HeLa cells [1]): across the cytoplasm in punctate deposits
- Cellular uptake (HeLa cells [1]): excellent and rapid cellular uptake
- Cell cytotoxicity by imaging, 1 min irradiation (HeLa cells [6]; 1 h, then blue light 1 min): no cell cytotoxicity was observed
- Cell cytotoxicity by imaging, 1 h irradiation (HeLa cells [6]; then blue light 1 h): discernible cell damage is evident
- IC50 (CHO cells): > 100 µM
- IC50 (A375 cells [2]; [8]): > 100 µM
- IC50 (A375 cells [2]; [9]): > 500 µM
- P.I. A375 (IC50 dark/IC50 465 nm) (A375 cells [2]; normoxia): >18.5
- IC50 (A375 cells [2]; [10]): 27.1 ± 6.2 µM
- IC50 (A375 cells [2]; [11]): > 500 µM
- P.I. HeLa (IC50 dark/IC50 465 nm) (HeLa cells [3]; hypoxia (2% O2)): >8.7
- IC50 (HeLa cells [3]; [12]): 57.2 ± 6.4 µM
- IC50 (HeLa cells [3]; [13]): > 500 µM
- P.I. HeLa (IC50 dark/IC50 465 nm) (HeLa cells [3]; normoxia): >12.0
- IC50 (HeLa cells [3]; [14]): 41.8 ± 3.9 µM
- IC50 (HeLa cells [3]; [15]): > 500 µM
- IC50 (A375 cells [4]): > 100 µM
- IC50 (HeLa cells [5]): > 100 µM
- IC50 (A2780 cells): > 100 µM

Compound: CN(C)c1ccc(-n2cc(-c3nc4ccccc4s3)nn2)cc1 [L5]
- Intracellular distribution (HeLa cells [7]): evenly distributed around cell cytoplasm but not within nuclei

Compound: Cc1ccc(-n2cc(-c3nc4ccccc4s3)nn2)cc1.O=S(=O)([O-])C(F)(F)F.O=S(=O)([O-])C(F)(F)F.[Ru+2].c1cnc2c(c1)ccc1cccnc12.c1cnc2c(c1)ccc1cccnc12 [Ru1, [Ru(phen)2(L1)][OTf]2]
- IC50 (CHO cells): > 100 µM
- P.I. A375 (IC50 dark/IC50 465 nm) (A375 cells [2]; hypoxia (2% O2)): >7.5
- IC50 (A375 cells [2]; [8]): 66.9 ± 6.1 µM
- IC50 (A375 cells [2]; [9]): > 500 µM
- P.I. A375 (IC50 dark/IC50 465 nm) (A375 cells [2]; normoxia): >24.4
- IC50 (A375 cells [2]; [10]): 20.6 ± 1.5 µM
- IC50 (A375 cells [2]; [11]): > 500 µM
- P.I. HeLa (IC50 dark/IC50 465 nm) (HeLa cells [3]; hypoxia (2% O2)): >7.1
- IC50 (HeLa cells [3]; [12]): 70.2 ± 5 µM
- IC50 (HeLa cells [3]; [13]): > 500 µM
- P.I. HeLa (IC50 dark/IC50 465 nm) (HeLa cells [3]; normoxia): >10.4
- IC50 (HeLa cells [3]; [14]): 48 ± 3.4 µM
- IC50 (HeLa cells [3]; [15]): > 500 µM
- IC50 (A375 cells [4]): > 100 µM
- IC50 (HeLa cells [5]): > 100 µM
- IC50 (A2780 cells): > 100 µM

Compound: FC(F)(F)c1ccc(-n2cc(-c3nc4ccccc4s3)nn2)cc1.O=S(=O)([O-])C(F)(F)F.O=S(=O)([O-])C(F)(F)F.[Ru+2].c1cnc2c(c1)ccc1cccnc12.c1cnc2c(c1)ccc1cccnc12 [Ru3, [Ru(phen)2(L3)][OTf]2]
- IC50 (CHO cells): > 100 µM
- IC50 (A375 cells [2]; [8]): > 100 µM
- IC50 (A375 cells [2]; [9]): > 500 µM
- P.I. A375 (IC50 dark/IC50 465 nm) (A375 cells [2]; normoxia): >6.8
- IC50 (A375 cells [2]; [10]): 73.5 ± 4.3 µM
- IC50 (A375 cells [2]; [11]): > 500 µM
- P.I. HeLa (IC50 dark/IC50 465 nm) (HeLa cells [3]; hypoxia (2% O2)): >5.9
- IC50 (HeLa cells [3]; [12]): 85.2 ± 4.4 µM
- IC50 (HeLa cells [3]; [13]): > 500 µM
- P.I. HeLa (IC50 dark/IC50 465 nm) (HeLa cells [3]; normoxia): >6.8
- IC50 (HeLa cells [3]; [14]): 73.5 ± 4.2 µM
- IC50 (HeLa cells [3]; [15]): > 500 µM
- IC50 (A375 cells [4]): > 100 µM
- IC50 (HeLa cells [5]): > 100 µM
- IC50 (A2780 cells): > 100 µM

— publication PMC11005040, “Photoactivatable Ruthenium Complexes Containing Minimal Straining Benzothiazolyl-1,2,3-triazole Chelators for Cancer Treatment” (Inorganic Chemistry, 2024)
